Results from US9834556B2, “Process of preparing 3-(3-(4-aminocyclobutyl)phenyl)-5-phenyl-3H-imidazo[4,5-B]pyridin-2-YL)pyridin-2-amine” (ARQULE, INC., priority 2014, dated 2017).
Converted amounts (≈) assume the structure as drawn.

Key:
Assay type in all cases: physicochemical
Conditions in all cases: organic solvent or mixture
[1] = Solubility of 3 in HOAc, 2-MeTHF and THF
Protocol: Although the reaction was high yielding, the amount of solvent required to perform the reaction limited the throughput due to the poor solubility of 3 in EtOAc. It was therefore desirable to find an alternate solvent for this reaction to prevent the risk of poor conversion while increasing the volume efficiency. To address this issue, the solubility of 3 was evaluated in HOAc and THF in addition to 2-MeTHF. […] In one embodiment, THF is used for the hydrogenation reaction. In another embodiment, 2-MeTHF is used for the hydrogenation reaction. […] In one embodiment, when the hydrogenation reaction was run at 40 psi hydrogen pressure at 40° C., the reaction was typically complete in 2 to 3 hours. The final variable which was investigated was catalyst loading. The initial 10 wt % loading was reduced to 5 wt % without any decrease in reaction time, yield or purity.

[2] = Solubility of 3 in 2-MeTHF/heptane mixtures
Protocol: A series of experiments were performed to test the solubility of 3 in a mixture of 2-MeTHF and heptane.

[3] = Solubility of 6 in extraction solvents
Protocol: While this initial trial was very promising, in subsequent experiments on larger scale, complications were encountered. One issue was that during the neutralization of acetic acid, emulsions were often obtained. Multiple solvent systems were investigated and the solubility of 6 was evaluated to estimate the efficiency of the extraction (Table 17).

[4] = Solubility of 7 in a selection of solvents
Description: Isolation of 7 from the MSA aqueous layer was completed by addition of DCM followed by basification with aqueous NaOH to extract the 7 free base into the DCM layer. […] Isolation from the DCM solution was developed by concentrating the volume of the DCM to induce crystallization followed by the addition of heptane as an anti-solvent. […] Possible solvents candidates which could be used to efficiently extract 7 were limited to DCM due to the poor solubility of 7 in a variety of common solvents (Table 19).

For `CC(C)(C)OC(=O)NC1(c2ccc(Nc3nc(-c4ccccc4)ccc3[N+](=O)[O-])cc2)CCC1` [Compound 3, tert-butyl (1-(4-((3-nitro-6-phenylpyridin-2-yl)amino)phenyl)cyclobutyl)carbamate], the solubility ([1]; in 2-MeTHF) was 100000 µg/mL (≈ 217 mM), the solubility ([1]; in HOAc) was 24800 µg/mL (≈ 53.9 mM) and the solubility ([1]; in THF) was 155000 µg/mL (≈ 337 mM). For the same molecule, the solubility ([2]; 2-MeTHF/heptane 1/0 (v/v), 2-MeTHF/heptane (v/v) 1/0, 25° C.) was 100000 µg/mL (≈ 217 mM), the solubility ([2]; 2-MeTHF/heptane 2/8 (v/v), 2-MeTHF/heptane (v/v) 2/8, 25° C.) was 300 µg/mL (≈ 0.651 mM) and the solubility ([2]; 2-MeTHF/heptane 3/7 (v/v), 2-MeTHF/heptane (v/v) 3/7, 25° C.) was 1200 µg/mL (≈ 2.61 mM). It also gave a solubility ([2]; 2-MeTHF/heptane 4/6 (v/v), 2-MeTHF/heptane (v/v) 4/6, 25° C.) of 3800 µg/mL (≈ 8.25 mM), a solubility ([2]; 2-MeTHF/heptane 5/5 (v/v), 2-MeTHF/heptane (v/v) 5/5, 25° C.) of 4500 µg/mL (≈ 9.77 mM) and a solubility ([2]; 2-MeTHF/heptane 6/4 (v/v), 2-MeTHF/heptane (v/v) 6/4, 25° C.) of 8000 µg/mL (≈ 17.4 mM). It also gave a solubility ([2]; 2-MeTHF/heptane 7/3 (v/v), 2-MeTHF/heptane (v/v) 7/3, 25° C.) of 13000 µg/mL (≈ 28.2 mM), a solubility ([2]; 2-MeTHF/heptane 8/2 (v/v), 2-MeTHF/heptane (v/v) 8/2, 25° C.) of 23000 µg/mL (≈ 49.9 mM) and a solubility ([2]; 2-MeTHF/heptane 9/1 (v/v), 2-MeTHF/heptane (v/v) 9/1, 25° C.) of 32000 µg/mL (≈ 69.5 mM).
Molecule `CC(C)(C)OC(=O)NC1(c2ccc(-n3c(-c4cccnc4N)nc4ccc(-c5ccccc5)nc43)cc2)CCC1` [Compound 6, tert-butyl (1-(4-(2-(2-aminopyridin-3-yl)-5-phenyl-3H-imidazo[4,5-b]pyridin-3-yl)phenyl)cyclobutyl)carbamate] has a solubility ([3]; Solvent 2-MeTHF) of 25000 µg/mL (≈ 46.9 mM), a solubility ([3]; Solvent DCM) of 126000 µg/mL (≈ 237 mM) and a solubility ([3]; Solvent EtOAc) of 6600 µg/mL (≈ 12.4 mM). For the same molecule, the solubility ([3]; Solvent IPAc) was 2900 µg/mL (≈ 5.44 mM), the solubility ([3]; Solvent MTBE) was 690 µg/mL (≈ 1.3 mM) and the solubility ([3]; Solvent THF) was 110000 µg/mL (≈ 207 mM). For the same molecule, the solubility ([3]; Solvent Toluene) was 4500 µg/mL (≈ 8.45 mM).
Molecule `Nc1ncccc1-c1nc2ccc(-c3ccccc3)nc2n1-c1ccc(C2(N)CCC2)cc1` [Compound 7, 3-(3-(4-(1-aminocyclobutyl)phenyl)-5-phenyl-3H-imidazo[4,5-b]pyridin-2-yl)pyridin-2-amine] has a solubility ([4]; Solvent 2-MeTHF) of 4800 µg/mL (≈ 11.1 mM), a solubility ([4]; Solvent DCM) of 73000 µg/mL (≈ 169 mM) and a solubility ([4]; Solvent EtOAc) of 5600 µg/mL (≈ 12.9 mM). The solubility ([4]; Solvent IPAc) was 2900 µg/mL (≈ 6.7 mM), the solubility ([4]; Solvent MTBE) was 760 µg/mL (≈ 1.76 mM) and the solubility ([4]; Solvent THF) was 24000 µg/mL (≈ 55.5 mM). For the same molecule, the solubility ([4]; Solvent Toluene) was 9300 µg/mL (≈ 21.5 mM).
